Among the data in ChEMBL document CHEMBL5728138, “Triazolo-pyrimidine compounds and uses thereof” (2020) are IC50 values, retold here.

Assay [1] deals with T1, Adenosine receptor A1 (Homo sapiens, UniProt P30542).
T1 sequence (P30542 whole entry): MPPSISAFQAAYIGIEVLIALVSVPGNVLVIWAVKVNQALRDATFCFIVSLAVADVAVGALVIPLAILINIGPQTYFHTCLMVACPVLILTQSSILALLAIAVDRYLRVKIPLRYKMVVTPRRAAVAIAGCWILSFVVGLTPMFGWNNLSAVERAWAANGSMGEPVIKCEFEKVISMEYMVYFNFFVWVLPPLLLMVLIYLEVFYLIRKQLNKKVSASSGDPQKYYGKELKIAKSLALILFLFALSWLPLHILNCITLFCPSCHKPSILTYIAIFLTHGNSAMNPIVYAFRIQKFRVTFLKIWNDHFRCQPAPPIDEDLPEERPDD
As to the kind of experiment: (§1) FLIPR and cAMP Inhibition Assay: hADORA1/CHO (hA1 expressing) cells (Genscript) were plated at 1×10^4 cells/well into 384-well polystyrene plates one day before starting the experiment. On the day of experiment, the supernatant was discard and replaced with 40 µL of dye (FLIPR calcium 5 Assay Kit) per well and the plates were incubated for 60 mins at 37° C. plus 5% CO2. Then testing compounds were added at different concentrations for FLIPR™ inhibition assay. After a 400 s incubation with compound, […] was added into the cells, and the signal was captured by FLIPR.hA2a/CHO, hA2b/CHO and mA2a/CHO (Genscript) were plated at 5×10^3 cells/well into 384-well polystyrene plates at the day of experiment. Compounds were pre-incubated with cells for 30 min at 37° C., 5% CO2. Then […] was added to the cells and incubated for 30 min at 37° C., 5% CO2. Detection reagent (CISBIO) was added and the plates were incubated for 60 min at room temperature. The signal was captured by Envision.

The target of assay [2] is Adenosine receptor A2a (Mus musculus, UniProt Q60613). The assay is described as §1.
Adenosine receptor A2a (Mus musculus, UniProt Q60613), sequence (Q60613 whole entry): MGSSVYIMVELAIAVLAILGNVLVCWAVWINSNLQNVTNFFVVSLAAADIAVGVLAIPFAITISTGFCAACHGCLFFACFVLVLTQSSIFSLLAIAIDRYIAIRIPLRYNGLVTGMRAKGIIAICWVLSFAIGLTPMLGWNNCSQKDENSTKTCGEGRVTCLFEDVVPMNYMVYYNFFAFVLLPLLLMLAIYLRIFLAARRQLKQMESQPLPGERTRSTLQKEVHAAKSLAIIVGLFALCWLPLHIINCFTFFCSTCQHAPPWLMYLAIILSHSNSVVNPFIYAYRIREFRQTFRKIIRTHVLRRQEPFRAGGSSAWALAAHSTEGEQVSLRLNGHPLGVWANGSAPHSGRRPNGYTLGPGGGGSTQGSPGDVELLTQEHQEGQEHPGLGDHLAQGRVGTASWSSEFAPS
Assay [3] addresses T2, Adenosine receptor A2b (Homo sapiens, UniProt P29275).
T2 sequence (P29275 whole entry): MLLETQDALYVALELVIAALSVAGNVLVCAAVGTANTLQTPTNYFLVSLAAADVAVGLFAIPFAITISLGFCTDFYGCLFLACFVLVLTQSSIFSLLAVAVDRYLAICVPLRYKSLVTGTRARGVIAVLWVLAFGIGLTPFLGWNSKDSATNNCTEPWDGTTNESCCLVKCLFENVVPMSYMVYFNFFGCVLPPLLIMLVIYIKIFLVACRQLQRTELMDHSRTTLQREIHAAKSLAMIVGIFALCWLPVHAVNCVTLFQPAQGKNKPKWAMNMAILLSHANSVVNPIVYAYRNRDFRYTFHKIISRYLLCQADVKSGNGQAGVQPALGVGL
The description is as §1.

The target in assay [4] is Adenosine receptor A2a (Homo sapiens, UniProt P29274). The assay is described as follows: Binding Affinities to Different Adenosine Receptors: The compounds at different concentrations were incubate with hA1 membrane (from PerkinElmer) and [3H]-8-Cyclopentyl-1,3-dipropylxanthine (DPCPX) for 50 min at 25° C., meanwhile 100 μL 0.5% PEI solution was added into […]-96 GF/B filter plate for 60 min at 4° C., then […]-96 GF/B filter plate was washed twice with 50 ml wash buffer, the membrane mix was transferred into […]-96 GF/B filter plate, and the filter plate was washed 4 times before incubated at 55° C. for 10 min. At last, […] ULTIMA GOLD was added into each well, and CPM was read by TopCount.The compounds at different concentrations were incubate with hA2a membrane (from PerkinElmer) and [3H]-CGS21680 for 90 min at 25° C., meanwhile 100 μL 0.5% PEI solution was added into […]-96 GF/B filter plate for 60 min at 4° C., then […]-96 GF/B filter plate was washed twice with 50 ml wash buffer, the membrane mix was transferred into […]-96 GF/B filter plate, and the filter plate was washed 4 times before incubated at 55° C. for 10 min. At last, […] ULTIMA GOLD was added into each well, and CPM was read by TopCount.The compounds at different concentrations were incubate with hA2b membrane (from PerkinElmer) and [3H]-DPCPX for 60 min at 27° C., and the binding reactions were stopped by rapid filtration through 0.5% BSA coated […]-96 GF/C plates using cell harvester. […].
Adenosine receptor A2a (Homo sapiens, UniProt P29274), sequence (P29274 whole entry): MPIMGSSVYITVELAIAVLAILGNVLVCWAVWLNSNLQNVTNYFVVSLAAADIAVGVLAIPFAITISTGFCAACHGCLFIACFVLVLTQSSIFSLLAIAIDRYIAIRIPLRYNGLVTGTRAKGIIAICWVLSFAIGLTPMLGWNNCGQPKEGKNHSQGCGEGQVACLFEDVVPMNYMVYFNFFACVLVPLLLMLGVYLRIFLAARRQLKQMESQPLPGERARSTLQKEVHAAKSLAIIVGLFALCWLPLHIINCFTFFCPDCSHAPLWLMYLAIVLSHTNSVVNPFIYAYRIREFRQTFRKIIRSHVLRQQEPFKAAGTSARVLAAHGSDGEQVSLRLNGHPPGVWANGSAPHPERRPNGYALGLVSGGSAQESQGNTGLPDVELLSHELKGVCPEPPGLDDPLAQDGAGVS

For orientation: IC50 means the midpoint of a concentration-inhibition curve.

As to `Nc1nc(-n2ccnn2)c(-c2ccc3nccn3c2)c2nc(Cc3ncccc3F)nn12`, the IC50 in assay [1] was found to be 779 nM; in assay [2], 170 nM; in assay [3], 1110 nM; in assay [4] it was 103 nM.

As to `Cc1cnc2ccc(-c3c(N4CCOCC4)nc(N)n4nc(Cc5c(F)cccc5F)nc34)cn12`, the figures for the IC50 in assay [2], in assay [3] and in assay [4] were 2.9 nM, 44.5 nM and 0.2 nM, respectively.
